Literature values in patent publication US4032635A, “Pharmaceutical method for the therapy of immune diseases” (Zaidan Hojin Biseibutsu Kagaku Kenkyu Kai, priority 1975, dated 1977).

Experiments:
histidine decarboxylase = settings: cited from earlier work
[1] = test system: antibody formation, anaphylaxis or contact dermatitis; settings: in vivo; cited from earlier work
[2] = test system: MS and related autoimmune diseases; settings: long-term administration; cited from earlier work
[3] = test system: nucleic acid and/or protein synthesis; settings: cited from earlier work
[4] = test system: autoimmune diseases, some infection allergies and dermatological contact allergies, transplantation immunological responses; settings: in vivo; cited from earlier work
[5] = test system: humoral and cell-mediated immunities; settings: cited from earlier work
[6] = test system: experimental allergic encephalomyelitis (EAE); settings: cited from earlier work

What does the source list for `CCOc1c(N)c2c(c(OCC)c1OCC)C(C1c3c(cc4c(c3OC)OCO4)CCN1C)OC2=O` (centres unmarked) [tritoqualine]?
inhibition of histidine decarboxylase (histidine decarboxylase): inhibitor of histidine decarboxylase; inhibition of antibody formation, anaphylaxis or contact dermatitis [1]: inhibits antibody formation, anaphylaxis or contact dermatitis

With `NNC(Cc1c[nH]cn1)C(=O)O` (centres unmarked) [2-hydrazino-3-(4-imidazolyl)-propionic acid] as the compound, how does the “inhibition of histidine decarboxylase” value (histidine decarboxylase) read?
The value was “inhibitor of histidine decarboxylase”.

And the “inhibition of antibody formation, anaphylaxis or contact dermatitis” value [1]?
The value was “inhibits antibody formation, anaphylaxis or contact dermatitis”.

Which “effects in patients with MS” value [2] does the source give for “ACTH: presently applied to patients with MS and related autoimmune diseases (SYSMEHFRWGKPVGKKRRPVKVYPNGAEDESAEAFPLEF; Corticotropin; UniProt P01189 138-176, looked up)” here?
The value was “effects are limited due to serious side-effects caused by long-term administration of the drug”.

Which “effect on nucleic acid and/or protein synthesis” value [3] does the source give for `O=P1(N(CCCl)CCCl)NCCCO1` (centres unmarked) [cyclophosphamide] here?
Its value is “disrupt nucleic acid and/or protein synthesis”.

And the “effectiveness in therapy of autoimmune diseases, allergies, transplantation responses” value [4]?
Its value is “effective in the therapy of autoimmune diseases, some infection allergies and dermatological contact allergies”.

What about the “dose at which effective / cytotoxicity” value [5] of the same compound?
The value was “effective in general only at near-lethal doses owing to their cytotoxicity”.

And the “inhibition of humoral and cell-mediated immunities” value [5]?
The value was “inhibit both humoral and cell-mediated immunities”.

What about the “EAE after discontinuation of the drug (known agents)” value ([6]; after discontinuation and following a latent period) of the same compound?
Its value is “the animals often develop paralytic EAE”.

What about the “suppression of development of EAE (known agents)” value ([6]; at such high doses as would cause toxicity) of the same compound?
Its value is “can suppress the development of EAE”.
